Converted amounts (≈) assume the structure as drawn.
What was measured:
Cl. perfringens 9C-02 = type: cell-based, Clostridium perfringens; settings: strain 9C-02, origin chicken; GAM agar, anaerobic, 37° C., 24 hours
broiler chicks = assay: Growth-stimulation test on chicks; type: in vivo, broiler chicks (arbor acre); settings: 20 ppm in feed for 14 days; for FCR: feed efficiency (B/A) / FCR (%), index when control group is 100 / Increase of weight (%), index when control group is 100: broiler chicks; for Increase of weight A (M = g) ± SD (average increase of weight): broiler chicks 8 to 22 days old, 24 chicks; for FCR (%), index when control group is 100 / Increase of weight (%), index when control group is 100: control = 100
Text: The growth-stimulating activities of PA-45052-A, PA-45052-B and PA-45052-E on broiler chicks (arbor acre, 8 days old) were investigated by using the known antibiotic thiopeptin as a referential agent. Chicks were fed with a feed mush (crude protein (CP) concentration 18%, each agent's concentration 20 ppm, not supplemented with other antibiotics) for 14 days in the battery brooders. The method of this experiment was as follows. After chicks were fed by floor pen with a feed (CP concentration 23%) from 0 to 8 days, they were divided into 5 groups (24 chicks a group, 12 male and 12 female) in such a way that the average weights of the groups are equal. To each group was administered PA-45052-A (20 ppm), PA-45052-B (20 ppm), PA-45052-E (20 ppm), thiopeptin (20 ppm) or only a feed (CP 18%) for 14 days. Each group was fed in cages (435×600×410 mm, each cage has 6-7 chicks) at 26°±2° C. for 14 days (up to 22 days old). Effectiveness was estimated from the increase of weight and the feed efficiency.

[1] = test system: Streptococcus agalactiae SR 1247; assay: In vitro antibacterial activity, agar dilution method (MIC); settings: horse serum 0.5%, 37° C., 18-20 hrs
[2] = test system: Cl. perfringens FC 2208/75; type: cell-based, Clostridium perfringens; settings: strain FC 2208/75, origin cow; GAM agar, anaerobic, 37° C., 24 hours
[3] = test system: Streptococcus pyogenes C-203; assay: In vitro antibacterial activity, agar dilution method (MIC); settings: horse serum 0.5%, 37° C., 18-20 hrs
[4] = test system: Streptococcus pneumoniae Type I; assay: as above; settings: horse serum 0.5%, 37° C., 18-20 hrs
Cl. perfringens SP07 = type: cell-based, Clostridium perfringens; settings: strain SP07, origin chicken; GAM agar, anaerobic, 37° C., 24 hours
Cl. perfringens 3C-01 = type: cell-based, Clostridium perfringens; settings: strain 3C-01, origin chicken; GAM agar, anaerobic, 37° C., 24 hours
Cl. perfringens CW-1970 = type: cell-based, Clostridium perfringens; settings: strain CW-1970, origin cow; GAM agar, anaerobic, 37° C., 24 hours
[5] = test system: Streptococcus epidermidis ATCC 14490; assay: In vitro antibacterial activity, agar dilution method (MIC); settings: 37° C., 18-20 hrs
[6] = test system: Staphylococcus aureus ATCC 25923; assay: as above; settings: 37° C., 18-20 hrs
[7] = test system: Cl. perfringens NCTC-8798; type: cell-based, Clostridium perfringens; settings: strain NCTC-8798, origin cow; GAM agar, anaerobic, 37° C., 24 hours
[8] = test system: Cl. perfringens NCTC-8239; type: cell-based, Clostridium perfringens; settings: strain NCTC-8239, origin cow; GAM agar, anaerobic, 37° C., 24 hours
Cl. perfringens 02441 = type: cell-based, Clostridium perfringens; settings: strain 02441, origin chicken; GAM agar, anaerobic, 37° C., 24 hours
[9] = test system: Cl. perfringens NCTC-10239; type: cell-based, Clostridium perfringens; settings: strain NCTC-10239, origin cow; GAM agar, anaerobic, 37° C., 24 hours
[10] = test system: Staphylococcus aureus SR 2030; assay: Antibacterial activity in vivo, mouse intraperitoneal infection (ED50); settings: Slc-ICR female mice, i.p. inoculation of S. aureus SR 2030 (methicillin-resistant); s.c. dosing 1 and 5 hours later; survival on day 7
Method: (§1) Test method: The test organism is intraperitoneally inoculated to Slc-ICR female mice (8 mice per group), and PA-45052-A, -B or -C (two-fold dilution) is subcutaneously administered twice one hour later and 5 hours later.
(§2) Results: The 50% effective dose (ED50) is calculated from the survival rate on day 7.

[11] = test system: Streptococcus pyogenes C-203; assay: as above; settings: Slc-ICR female mice, i.p. inoculation of Streptococcus pyogenes C-203; s.c. dosing 1 and 5 hours later; survival on day 7
Method: as §1, §2

[12] = test system: Streptococcus pneumoniae Type I; assay: as above; settings: Slc-ICR female mice, i.p. inoculation of Streptococcus pneumoniae Type I; s.c. dosing 1 and 5 hours later; survival on day 7
Method: as §1, §2

[13] = test system: Staphylococcus aureus SR 3637; assay: as above; settings: Slc-ICR female mice, i.p. inoculation of S. aureus SR 3637 (methicillin-resistant); s.c. dosing 1 and 5 hours later; survival on day 7
Method: as §1, §2

Cl. perfringens S-79 = type: cell-based, Clostridium perfringens; settings: strain S-79, origin cow; GAM agar, anaerobic, 37° C., 24 hours
[14] = test system: Staphylococcus aureus SR3626; assay: In vitro antibacterial activity, agar dilution method (MIC); type: cell-based; settings: Staphylococcus aureus SR3626, methicillin-resistant, 37° C., 18-20 hrs
[15] = test system: Staphylococcus aureus SR3131; assay: as above; type: cell-based; settings: Staphylococcus aureus SR3131, methicillin-resistant, 37° C., 18-20 hrs
Cl. perfringens 6B-10 = type: cell-based, Clostridium perfringens; settings: strain 6B-10, origin cow; GAM agar, anaerobic, 37° C., 24 hours
[16] = test system: Staphylococcus aureus SMITH; assay: In vitro antibacterial activity, agar dilution method (MIC); settings: 37° C., 18-20 hrs
mouse = assay: LD50 on injection to mouse; type: in vivo
Text: The growth-stimulating agent of this invention not only promotes growth of animals but also improves feed efficiency. Naturally, it is effective against infections by bacteria.

[17] = test system: Staphylococcus aureus SR14; assay: In vitro antibacterial activity, agar dilution method (MIC); type: cell-based; settings: Staphylococcus aureus SR14, penicillin-resistant, 37° C., 18-20 hrs
[18] = test system: Staphylococcus aureus PDA 209P JC-1; assay: as above; settings: 37° C., 18-20 hrs
[19] = test system: Staphylococcus aureus SR1626; assay: as above; type: cell-based; settings: Staphylococcus aureus SR1626, methicillin-resistant, 37° C., 18-20 hrs
[20] = test system: Streptococcus faecalis SR 1004; assay: as above; settings: horse serum 0.5%, 37° C., 18-20 hrs

Row | Molecule | MIC (Cl. perfringens 9C-02) | FCR: feed efficiency (B/A) (broiler chicks) | Increase of weight A (M = g) ± SD (average increase of weight) (broiler chicks) | FCR (%), index when control group is 100 (broiler chicks) | Increase of weight (%), index when control group is 100 (broiler chicks) | MIC [1] | MIC [2] | MIC [3] | MIC [4] | MIC (Cl. perfringens SP07) | MIC (Cl. perfringens 3C-01) | MIC [5] | MIC [6] | MIC [14] | MIC [15] | MIC [16] | MIC [17] | MIC [18] | MIC [19] | MIC [20] | other results
1 | CNC(CC(C)C)C(=O)NC1C(=O)NC(CC(N)=O)C(=O)NC2C(=O)NC3C(=O)NC(C(=O)NC(C(=O)O)c4cc(O)cc(O)c4-c4cc3ccc4O)C(OC3CC(C)(N)C(O)C(C)O3)c3ccc(c(Cl)c3)Oc3cc2cc(c3OC2OC(CO)C(O)C(O)C2OC2CC(C)(N)C(O)C(C)O2)Oc2ccc(cc2Cl)C1O (centres unmarked) [PA-45052-A] | 0.39 µg/mL (≈ 0.245 µM) | 1.63 | 440.9 ± 60.4 g | 95.3% | 105.9% | 0.2 µg/mL (≈ 0.126 µM) | 0.39 µg/mL (≈ 0.245 µM) | 0.2 µg/mL (≈ 0.126 µM) | 0.1 µg/mL (≈ 0.0628 µM) | 0.2 µg/mL (≈ 0.126 µM) | 0.78 µg/mL (≈ 0.49 µM) | 0.78 µg/mL (≈ 0.49 µM) | 0.39 µg/mL (≈ 0.245 µM) | 0.39 µg/mL (≈ 0.245 µM) | 0.39 µg/mL (≈ 0.245 µM) | 0.39 µg/mL (≈ 0.245 µM) | 0.39 µg/mL (≈ 0.245 µM) | 0.2 µg/mL (≈ 0.126 µM) | 0.39 µg/mL (≈ 0.245 µM) | 0.78 µg/mL (≈ 0.49 µM) | MIC (Cl. perfringens CW-1970): 0.39 µg/mL (≈ 0.245 µM); MIC [7]: 0.39 µg/mL (≈ 0.245 µM); MIC [8]: 0.2 µg/mL (≈ 0.126 µM); MIC (Cl. perfringens 02441): 0.39 µg/mL (≈ 0.245 µM); MIC [9]: 0.2 µg/mL (≈ 0.126 µM); ED50 (50% effective dose) [10]: 0.99 mg/kg/dose; ED50 (50% effective dose) [11]: 0.14 mg/kg/dose; ED50 (50% effective dose) [12]: 0.19 mg/kg/dose; ED50 (50% effective dose) [13]: 1.91 mg/kg/dose; MIC (Cl. perfringens S-79): 0.39 µg/mL (≈ 0.245 µM); MIC (Cl. perfringens 6B-10): 0.39 µg/mL (≈ 0.245 µM); LD50 (mouse): > 1000 mg/kg
2 | CNC(CC(C)C)C(=O)NC1C(=O)NC(CC(N)=O)C(=O)NC2C(=O)NC3C(=O)NC(C(=O)NC(C(=O)O)c4cc(O)cc(O)c4-c4cc3ccc4O)C(OC3CC(C)(N)C(O)C(C)O3)c3ccc(c(Cl)c3)Oc3cc2cc(c3OC2OC(CO)C(O)C(O)C2O)Oc2ccc(cc2Cl)C1O (centres unmarked) [PA-45052-B] | 0.39 µg/mL (≈ 0.269 µM) | 1.60 | 438.5 ± 51.6 g | 93.6% | 105.4% | 0.39 µg/mL (≈ 0.269 µM) | 0.39 µg/mL (≈ 0.269 µM) | 0.2 µg/mL (≈ 0.138 µM) | 0.2 µg/mL (≈ 0.138 µM) | 0.2 µg/mL (≈ 0.138 µM) | 0.78 µg/mL (≈ 0.538 µM) | 1.56 µg/mL (≈ 1.08 µM) | 0.39 µg/mL (≈ 0.269 µM) | 0.39 µg/mL (≈ 0.269 µM) | 0.39 µg/mL (≈ 0.269 µM) | 0.78 µg/mL (≈ 0.538 µM) | 0.78 µg/mL (≈ 0.538 µM) | 0.39 µg/mL (≈ 0.269 µM) | 0.78 µg/mL (≈ 0.538 µM) | 0.78 µg/mL (≈ 0.538 µM) | MIC (Cl. perfringens CW-1970): 0.39 µg/mL (≈ 0.269 µM); MIC [7]: 0.39 µg/mL (≈ 0.269 µM); MIC [8]: 0.2 µg/mL (≈ 0.138 µM); MIC (Cl. perfringens 02441): 0.39 µg/mL (≈ 0.269 µM); MIC [9]: 0.2 µg/mL (≈ 0.138 µM); ED50 (50% effective dose) [10]: 1.45 mg/kg/dose; ED50 (50% effective dose) [11]: 0.44 mg/kg/dose; ED50 (50% effective dose) [12]: 0.38 mg/kg/dose; ED50 (50% effective dose) [13]: 2.84 mg/kg/dose; MIC (Cl. perfringens S-79): 0.39 µg/mL (≈ 0.269 µM); MIC (Cl. perfringens 6B-10): 0.39 µg/mL (≈ 0.269 µM); LD50 (mouse): 1439 mg/kg
3 | CC(C)CC(C(=O)NC1C(=O)NC(CC(N)=O)C(=O)NC2C(=O)NC3C(=O)NC(C(=O)NC(C(=O)O)c4cc(O)cc(O)c4-c4cc3ccc4O)C(OC3CC(C)(N)C(O)C(C)O3)c3ccc(c(Cl)c3)Oc3cc2cc(c3OC2OC(CO)C(O)C(O)C2OC2CC(C)(N)C(O)C(C)O2)Oc2ccc(cc2Cl)C1O)N(C)C (centres unmarked) [PA-45052-D] |  |  |  |  |  | 0.2 µg/mL (≈ 0.124 µM) |  | 0.2 µg/mL (≈ 0.124 µM) | 0.2 µg/mL (≈ 0.124 µM) |  |  | 0.78 µg/mL (≈ 0.486 µM) | 0.78 µg/mL (≈ 0.486 µM) | 0.78 µg/mL (≈ 0.486 µM) | 0.39 µg/mL (≈ 0.243 µM) | 0.39 µg/mL (≈ 0.243 µM) | 0.39 µg/mL (≈ 0.243 µM) | 0.2 µg/mL (≈ 0.124 µM) | 0.39 µg/mL (≈ 0.243 µM) | 0.78 µg/mL (≈ 0.486 µM) | 
4 | CC(C)CC(C(=O)NC1C(=O)NC(CC(N)=O)C(=O)NC2C(=O)NC3C(=O)NC(C(=O)NC(C(=O)O)c4cc(O)cc(O)c4-c4cc3ccc4O)C(OC3CC(C)(N)C(O)C(C)O3)c3ccc(c(Cl)c3)Oc3cc2cc(c3OC2OC(CO)C(O)C(O)C2O)Oc2ccc(cc2Cl)C1O)N(C)C (centres unmarked) [PA-45052-E] |  |  |  |  |  | 0.39 µg/mL (≈ 0.267 µM) |  | 0.39 µg/mL (≈ 0.267 µM) | 0.39 µg/mL (≈ 0.267 µM) |  |  | 3.13 µg/mL (≈ 2.14 µM) | 0.78 µg/mL (≈ 0.533 µM) | 0.78 µg/mL (≈ 0.533 µM) | 0.78 µg/mL (≈ 0.533 µM) | 0.78 µg/mL (≈ 0.533 µM) | 0.78 µg/mL (≈ 0.533 µM) | 0.39 µg/mL (≈ 0.267 µM) | 0.78 µg/mL (≈ 0.533 µM) | 1.56 µg/mL (≈ 1.07 µM) | 
5 | thiopeptin [reference compound] |  | 1.62 | 431.5 ± 53.4 g | 94.7% | 103.7% |  |  |  |  |  |  |  |  |  |  |  |  |  |  |  | 

— patent US5071749A, “Glycopetide antibiotic PA-45052-B” (Shionogi & Co., Ltd., priority 1987, dated 1991)
